In patent publication US12612410B2 (CHILDREN'S HOSPITAL MEDICAL CENTER, priority 2020, dated 2026):

Columns and labels:
Type in all cases: cell-based
NF-κB [1] = assay: NF-kB SEAP reporter assay in THP-1-Blue NF-κB cells, Pam3CSK4 stimulation; settings: Pam3CSK4 1 ng/mL, 24 hours, read-out: NF-κB Pam3SCK4 IC50
Procedure: (§1) THP-1-Blue NF-xB cells (InvivoGen) carrying a stable integrated NF-κB-inducible secreted embryonic alkaline phosphatase (SEAP) reporter construct were plated at a concentration of 1×10^5 cells per well. The cells were stimulated with Pam3CSK4 (1 ng/mL) or hIL1B (1 ng/mL). After 10-20 minutes, the cells were then treated with vehicle (DMSO) or serial dilutions of the test compounds (10 doses tested for each test compound, with a 1:10 dilution series starting at 1 μM or 3 μM) with a final volume of 200 μL for 24 hours at 37° C. After 24 hours, the cells were centrifuged and 20 μL supernatant was incubated with 180 μL QUANTI-Blue reagent at 37° C. for 30-60 minutes. The levels of NF-κB-induced was measured in a microplate reader at 620 nm.

NF-κB [2] = assay: NF-kB SEAP reporter assay in THP-1-Blue NF-κB cells, hIL1B stimulation; settings: hIL1B 1 ng/mL, 24 hours, read-out: NF-κB IL1B IC50
Procedure: as §1

MOLM14 D835Y cells = assay: MOLM14 D835Y cell viability assay (Cell Titer Glo); settings: Homo sapiens, MOLM-14, 48 h
Procedure, shortened: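 MOLM14 cells carrying FLT3 D835Y or F691L were seeded at 1000 cells/well in RPMI-1640 with 20% FBS and dosed at 22 concentrations, 1:2 dilutions from 10 μM. Viability after 48 h by Cell Titer Glo luminescence; 2.3 μM bortezomib as cytotoxic control.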

IC50 (NF-κB [1]): 11 nM
IC50 (NF-κB [2]): 70 nM
IC50 (MOLM14 D835Y cells): 33 nM
Compound: CC(C)(C)c1cn2c(-c3cccc(N[C@@H]4CCCNC4)n3)cnc2cn1 [Compound 129, (R)-6-(6-(tert-butyl)imidazo[1,2-a]pyrazin-3-yl)-N-(piperidin-3-yl)pyridin-2-amine]
